Measurements as given in paper PMC9030932, “Development of Dibenzothiazepine Derivatives as Multifunctional Compounds for Neuropathic Pain” (Pharmaceuticals, 2022).
Entries after “also recorded” stand apart in the source; their conditions may differ. Where two headings read alike, the source gives them in different places. Marks after values point to notes of the source that are not given here.

Legend:
[1] = In vitro metabolic stability, human; format: in vitro ADME; details: for in vitro metabolic stability: S9 microsomal fraction, 30 min, Table S1; for recovery at 30 min, 1 µM: human, pH 7.4, % remaining after 30 min incubation with S9 microsomal fraction
Procedure: (§1) Experimental details for Biology […]
(§2) Microsomal stability. The metabolic stability of compounds was evaluated in rat liver microsomes (RLM). Microsomes (0.5 mg/ml) and test compound (1 µM) in 100 mM potassium phosphate buffer (pH 7.4) were preincubated with shaking (100 rpm) for 5 min at 37 °C. The metabolic reaction was initiated by the addition of an NADPH generating system (60 mM potassium phosphate buffer pH 7.4, 1.3 mM NADP, 3.3 mM glucose-6-phosphate, 0.3 µL glucose-6-phosphate dehydrogenase (0.4 U/mL), and 3.3 mM magnesium chloride) and incubated at 37 °C. Aliquots of 100 µL were withdrawn at 0, 10, 20, 30 and 60 min, and 2 volumes of ice-cold acetonitrile (ACN) were added to terminate the reaction. After mixing by vortex and centrifugation (14000 rpm) for 15 min at 4 °C, the supernatant was transferred to liquid chromatography vials and analyzed by an LC-MS/MS system.
(§3) Table S1. In vitro metabolic stability of selected compounds.
(§4) Compounds Human Rat Mouse […]
(§5) a% remaining after 30 min incubation with S9 microsomal fraction.

[2] = target: human norepinephrine transporter (hNET) (Homo sapiens, UniProt P23975); assay: Neurotransmitter transporter uptake assay, HEK-hNET; format: cell-based
[3] = target: human dopamine transporter (hDAT) (Homo sapiens, UniProt Q01959); assay: Neurotransmitter transporter uptake assay, HEK-hDAT; format: cell-based
[4] = target: T1, human κ-opioid receptor (OPRK1) (Homo sapiens, UniProt P41145); assay: Intracellular calcium mobilization (FLIPR Tetra), HEK-hKOR agonism; format: cell-based; details: for agonistic activity at the κ-opioid receptor: HEK-hKOR calcium mobilization; for activation at 10 µM: read-out: % Stimulation at 10 μM, OPRK1 Agonism against DynorphinA (370 nM)
T1 construct: host or cells: HEK293 (constitutive expression)
Procedure: Intracellular calcium mobilization was measured by using FLIPR Tetra System (Molecular Devices, Sunnyvale, CA, USA) in accordance with manufacturer’s instruction. […] Subsequently, the plate was transferred to the FLIPR tetra system for treating 50 μL of the 5× compounds diluted in loading buffer and reading intracellular calcium mobilization. The final concentration of DMSO was 0.1%. […] A dose response curve was generated with the changes in Relative Fluorescence Units (∆RFU) versus Log10 dose.
Experimental details for Biology
Cell culture. HEK293 cells stably expressing human DA transporter (HEK-hDAT), human NE transporter (HEK-hNET) and human serotonin transporter (HEK-hSERT) were kindly provided by Professor Bryan Roth (University of North Carolina at Chapel Hill). And HEK293 cells constitutively expressing human κ- or μ- opioid receptor (HEK-hKOR_NM000912 or HEK-hMOR_NM000914) were constructed by Professor Ki Duk Park (in Korea Institute of Science […]
Europins DiscoveRx (Fremont, CA, USA). Cells were mainta ined in Dulbecco's modified Eagle's medium (HyClone, Logan, UT, USA) supplemented with 10%(v/v) fetal bovine serum (FBS, HyClone, Logan, UT, USA), penicillin (100 U/mL), and streptomycin (100 μg/mL) in the […]
for HEK-hDAT, HEK-hNET, HEK-hSERT, HEK-hKOR and HEK-hMOR respectively) in a humidified 5% CO2 incubator at 37 °C. In case of both HEK-hKOR and HEK-hMOR, cells were additionally maintained in 0.2 mg/mL hygromycin B, 1 μg/mL puromycin B, 1× non-essential amino acids. The cells were subcultured every 3-4 days. […]

[5] = tested on: spinal-nerve-ligated neuropathic pain rats; assay: Spinal nerve ligation (SNL) neuropathic pain model, von Frey paw withdrawal threshold, intrathecal; format: in vivo, rat; details: for maximum possible effect (MPE): highest dose (12: 100 μg; 17: 30 μg); for effect on paw withdrawal threshold (PWT) / allodynia: vs vehicle
Procedure: Adult male Sprague-Dawley rats weighing 150–180 g each were used. The animals were housed in a room with a constant temperature of 22–23 °C and an alternating 12-h light/dark cycle, with unrestricted access to food and water. Implantation of intrathecal catheters was performed for drug administration under sevoflurane anesthesia, as described previously. Seven days of recovery were allowed after surgery before the use of catheterized rats in the experiments. Spinal nerve-ligated neuropathic pain was induced by tightly ligating the left L5 and L6 spinal nerves, as described previously. Only rats showing allodynia after either spinal nerve ligation (withdrawal threshold < 4 g) were studied. The von Frey test was used to determine the 50% probability paw withdrawal threshold (PWT), using the up and down method, in which a positive response was defined as brisk withdrawal or paw flinching during or immediately after application of a filament. On experimentation days (12 days after SNL), rats were acclimatized in a box with a wire mesh floor for at least 20 min before being randomly allocated to one of the experimental groups. All experiments were carried out by an observer who was blind to the treatments. To investigate the effects of 12 (30 or 100 μg) and 17 (10 or 30 μg), it was supplied intrathecally following post-injury baseline PWT determination in rats with either spinal nerve-ligated neuropathic pain. Withdrawal thresholds were determined at 15, 30, 60, 90, 120, 150, and 180 min after intrathecal administration.
All data are expressed as means ± SEM. The time-response data are presented as the withdrawal threshold in grams. The dose-response data are presented as a percentage of the maximum possible effect (%MPE): %MPE = ((post-drug threshold−post-injury baseline threshold)/(cutoff threshold−post-injury baseline threshold)) × 100. Time and dose-response data were analyzed by a one-way and two-way repeated measures analysis of variance (ANOVA), with a Bonferroni’s post hoc test. A p-value < 0.05 was considered statistically significant.

[6] = In vitro metabolic stability, rat; format: in vitro ADME; details: pH 7.4, % remaining after 30 min incubation with S9 microsomal fraction
Procedure: as §1, §2, §3, §4, §5

rats = assay: Behavioral responses: motor functions (righting, placing/stepping reflexes), pinna and corneal reflexes after intrathecal administration; format: in vivo, rat; details: highest doses, examined for 3 h
Procedure: Motor functions were assessed by examining righting and placing/stepping reflexes. […] The […] was evoked by the rat drawing the dorsum of either hind paw across the edge of a table. Normally, rats attempt to place a paw into a position that enables walking. The pinna and corneal reflexes were evoked by stimulating the ear canal or cornea, respectively, with a string. Normally, rats spontaneously shake their heads or blink. Normality of behavior was classified as present or absent. To evaluate the behavioral changes induced by compounds 12 and 17, additional rats were examined for 3 h after intrathecal administration of the highest doses of the agents used. The motor function and pinna and corneal reflexes were normal after intrathecal administration of compounds 12 and 17 at the highest doses. Overt abnormal behavioral changes were not observed.

[7] = target: T2, human μ-opioid receptor (OPRM1) (Homo sapiens, UniProt P35372); assay: Intracellular calcium mobilization (FLIPR Tetra), HEK-hMOR agonism; format: cell-based; details: for agonistic activity at the μ-opioid receptor: compared to DAMGO
T2 construct: host or cells: HEK293 (constitutive expression)

[8] = In vitro metabolic stability, mouse; format: in vitro ADME; details: pH 7.4, % remaining after 30 min incubation with S9 microsomal fraction
Procedure: as §1, §2, §3, §4, §5

hOPRM1 receptor = target: T3, hOPRM1 receptor (Homo sapiens, UniProt P35372); assay: PathHunter CHO-K1 OPRM1 β-arrestin recruitment assay; format: cell-based
T3 construct: host or cells: CHO-K1

[9] = target: human serotonin transporter (hSERT) (Homo sapiens, UniProt P31645); assay: Neurotransmitter transporter uptake assay, HEK-hSERT; format: cell-based
hMOR = tested on: hMOR; set-up: method as in earlier work; details: ref 21 (Gassaway et al.); cited from earlier work
mMOR = tested on: mMOR; set-up: method as in earlier work; details: ref 21 (Gassaway et al.); cited from earlier work

T1 sequence (P41145 whole entry): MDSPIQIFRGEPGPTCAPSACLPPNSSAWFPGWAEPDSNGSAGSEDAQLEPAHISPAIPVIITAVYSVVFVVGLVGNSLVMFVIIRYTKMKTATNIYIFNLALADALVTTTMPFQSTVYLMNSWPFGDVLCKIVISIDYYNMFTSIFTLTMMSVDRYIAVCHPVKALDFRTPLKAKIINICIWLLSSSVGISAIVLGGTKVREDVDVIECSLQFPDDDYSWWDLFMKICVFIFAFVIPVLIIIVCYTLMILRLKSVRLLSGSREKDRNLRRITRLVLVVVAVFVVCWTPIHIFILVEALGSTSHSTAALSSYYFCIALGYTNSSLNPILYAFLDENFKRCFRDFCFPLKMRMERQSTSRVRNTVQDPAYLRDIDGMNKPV
human serotonin transporter (hSERT), sequence (P31645 whole entry): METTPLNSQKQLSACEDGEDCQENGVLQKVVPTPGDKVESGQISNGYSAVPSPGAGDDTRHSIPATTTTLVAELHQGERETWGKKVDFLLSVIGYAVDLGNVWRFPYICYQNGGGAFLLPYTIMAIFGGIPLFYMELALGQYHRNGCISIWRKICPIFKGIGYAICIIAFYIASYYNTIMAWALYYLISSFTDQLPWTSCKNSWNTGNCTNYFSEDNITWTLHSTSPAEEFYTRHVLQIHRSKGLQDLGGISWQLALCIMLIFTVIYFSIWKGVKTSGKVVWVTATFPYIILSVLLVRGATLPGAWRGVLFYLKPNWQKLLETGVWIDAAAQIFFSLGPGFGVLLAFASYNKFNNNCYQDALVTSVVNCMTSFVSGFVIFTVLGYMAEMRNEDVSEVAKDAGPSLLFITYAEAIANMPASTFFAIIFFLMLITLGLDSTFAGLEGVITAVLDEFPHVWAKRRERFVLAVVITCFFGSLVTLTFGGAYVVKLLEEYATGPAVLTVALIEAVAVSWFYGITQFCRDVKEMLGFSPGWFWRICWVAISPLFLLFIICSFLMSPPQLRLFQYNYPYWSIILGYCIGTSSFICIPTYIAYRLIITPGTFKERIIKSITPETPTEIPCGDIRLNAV
T3 sequence (P35372 whole entry): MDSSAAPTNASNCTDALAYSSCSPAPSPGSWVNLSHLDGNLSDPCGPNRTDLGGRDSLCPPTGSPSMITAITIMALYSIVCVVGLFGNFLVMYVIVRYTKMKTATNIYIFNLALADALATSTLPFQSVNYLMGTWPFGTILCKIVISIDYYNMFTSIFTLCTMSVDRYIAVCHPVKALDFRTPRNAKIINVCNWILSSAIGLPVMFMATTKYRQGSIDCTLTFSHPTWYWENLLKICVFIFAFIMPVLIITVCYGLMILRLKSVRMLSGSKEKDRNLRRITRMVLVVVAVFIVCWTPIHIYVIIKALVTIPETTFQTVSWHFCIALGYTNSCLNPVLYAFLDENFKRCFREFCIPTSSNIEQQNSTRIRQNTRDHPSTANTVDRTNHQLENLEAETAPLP
T2 sequence (P35372 whole entry): as above
human norepinephrine transporter (hNET), sequence (P23975 whole entry): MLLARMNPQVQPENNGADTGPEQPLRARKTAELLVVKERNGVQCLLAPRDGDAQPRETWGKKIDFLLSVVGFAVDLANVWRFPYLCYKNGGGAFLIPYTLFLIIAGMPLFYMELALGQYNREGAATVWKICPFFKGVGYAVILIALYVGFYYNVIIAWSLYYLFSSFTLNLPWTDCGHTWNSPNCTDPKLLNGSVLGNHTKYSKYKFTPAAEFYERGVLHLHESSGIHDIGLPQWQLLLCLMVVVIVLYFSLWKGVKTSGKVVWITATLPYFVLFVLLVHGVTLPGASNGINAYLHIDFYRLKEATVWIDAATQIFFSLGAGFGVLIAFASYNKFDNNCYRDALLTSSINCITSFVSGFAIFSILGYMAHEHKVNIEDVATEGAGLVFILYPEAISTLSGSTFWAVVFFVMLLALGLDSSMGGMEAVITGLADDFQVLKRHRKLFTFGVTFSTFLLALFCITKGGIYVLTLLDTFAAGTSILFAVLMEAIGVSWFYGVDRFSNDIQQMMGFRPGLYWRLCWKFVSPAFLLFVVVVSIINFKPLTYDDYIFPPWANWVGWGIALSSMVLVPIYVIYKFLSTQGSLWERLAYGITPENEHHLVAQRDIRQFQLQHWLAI
human dopamine transporter (hDAT), sequence (Q01959 whole entry): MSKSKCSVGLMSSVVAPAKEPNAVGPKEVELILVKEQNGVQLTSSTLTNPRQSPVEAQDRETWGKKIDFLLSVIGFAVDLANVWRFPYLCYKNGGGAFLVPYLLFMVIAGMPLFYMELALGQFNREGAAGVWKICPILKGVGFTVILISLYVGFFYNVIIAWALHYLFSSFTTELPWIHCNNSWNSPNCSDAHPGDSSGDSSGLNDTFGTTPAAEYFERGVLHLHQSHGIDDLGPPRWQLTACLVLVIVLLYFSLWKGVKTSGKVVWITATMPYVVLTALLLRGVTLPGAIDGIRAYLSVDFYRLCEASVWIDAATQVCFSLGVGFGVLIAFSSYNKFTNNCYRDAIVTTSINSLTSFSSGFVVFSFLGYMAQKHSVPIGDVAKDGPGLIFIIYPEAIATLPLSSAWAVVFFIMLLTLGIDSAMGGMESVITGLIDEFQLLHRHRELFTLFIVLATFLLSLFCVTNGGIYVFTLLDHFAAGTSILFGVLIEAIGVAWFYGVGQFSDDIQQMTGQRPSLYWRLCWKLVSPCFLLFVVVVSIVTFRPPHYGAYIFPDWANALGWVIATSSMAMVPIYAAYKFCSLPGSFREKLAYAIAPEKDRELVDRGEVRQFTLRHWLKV

SMILES: CN1c2ccccc2C(NCCCCCCC(=O)NCCc2c[nH]c3ccc(O)cc23)c2ccc(Cl)cc2S1(=O)=O (centres unmarked) [Compound 12, 7-((3-chloro-6-methyl-5,5-dioxido-6,11-dihydrodibenzo[c,f][1,2]thiazepin-11-yl)amino)-N-(2-(5-hydroxy-1H-indol-3-yl)ethyl)heptanamide]
- in vitro metabolic stability [1]: extremely low
- recovery at 30 min, 1 µM [1]: 5%
- inhibition at 10 µM ([2]; 10 μM, HEK-hNET, mean ± SEM, n = 3–6, read-out: % Inhibition at 10 μM hNET): 30.1 ± 0.87%
- IC50 [3]: 9660 ± 1000 nM
- agonistic activity at the κ-opioid receptor [4]: did not show agonistic activities
- activation at 10 µM [4]: < 10%
- maximum possible effect (MPE) [5]: 73%
- effect on paw withdrawal threshold (PWT) / allodynia [5]: dose-dependent increase in the withdrawal threshold; also recorded: increased the paw withdrawal threshold (PWT) compared to the vehicle
- recovery at 30 min, 1 µM [6]: 6%
- motor function and pinna and corneal reflexes (rats): normal
- EC50 [7]: 1200 ± 244 nM
- agonistic activity at the μ-opioid receptor ([7]; HEK-hMOR calcium mobilization): partial agonisms
- recovery at 30 min, 1 µM [8]: 5%
- melting point: 92 to 95 °C
- EC50 (hOPRM1 receptor): 134 ± 12 nM
- IC50 [9]: 258 ± 57 nM

SMILES: CN1c2ccccc2C(NCCCCCCCNCCc2c[nH]c3ccc(O)cc23)c2ccc(Cl)cc2S1(=O)=O (centres unmarked) [Compound 17, 3-chloro-11-((7-((2-(5-hydroxy-1H-indol-3-yl)ethyl)amino)heptyl)amino)-6-methyl-6,11-dihydrodibenzo[c,f][1,2]thiazepine 5,5-dioxide]
- in vitro metabolic stability [1]: extremely low
- recovery at 30 min, 1 µM [1]: 0%
- IC50 [2]: 154 ± 7 nM
- IC50 [3]: 2010 ± 650 nM
- agonistic activity at the κ-opioid receptor [4]: no influence; also recorded: did not show agonistic activities
- activation at 10 µM [4]: < 10%
- maximum possible effect (MPE) [5]: 83%
- effect on paw withdrawal threshold (PWT) / allodynia [5]: increased mechanical withdrawal threshold compared to vehicle; also recorded: significantly reduced allodynia; also recorded: increased the PWT; also recorded: showed antiallodynic effects at the spinal level
- recovery at 30 min, 1 µM [6]: 1%
- motor function and pinna and corneal reflexes (rats): normal
- EC50 [7]: 384 ± 25 nM
- fold increase in Ca2+ efflux in HEK-hMOR ([7]; HEK-hMOR): 5.9 fold
- agonistic activity at the μ-opioid receptor ([7]; HEK-hMOR calcium mobilization): partial agonisms
- recovery at 30 min, 1 µM [8]: 1%
- EC50 (hOPRM1 receptor): 1560 ± 195 nM
- β-arrestin recruitment (hOPRM1 receptor; CHO-K1 OPRM1): lower levels of β-arrestin recruitment than compound 12
- IC50 ([9]; HEK-hSERT, neurotransmitter uptake, mean ± SEM, n = 3–6, read-out: IC50 hSERT): 70 ± 9 nM
- fold higher hSERT inhibitory activity than compound 12 ([9]; IC50 ratio vs compound 12): 3 fold

SMILES: CN1c2ccccc2C(NCCCCCCC(=O)O)c2ccc(Cl)cc2S1(=O)=O (centres unmarked) [Tianeptine, reference compound]
- agonistic activity at the κ-opioid receptor [4]: did not show appreciable biological activities
- activation at 10 µM [4]: < 10%
- EC50 (hMOR): 194 nM
- % Stimulation at 10 μM, OPRM1 Agonism against DAMGO (3.9 μM) ([7]; 10 μM, HEK-hMOR calcium mobilization, normalized to Emax of DAMGO at 3.9 μM): <10% ^b
- agonistic activity at the μ-opioid receptor ([7]; HEK-hMOR calcium mobilization): did not show appreciable biological activities
- EC50 (mMOR): 641 nM
- EC50 (hOPRM1 receptor): > 5000 nM
